Results taken from patent publication US20110045101A1, “FUNGICIDAL SUBSTITUTED AZOLES” (E.I. Du Pont De Nemours and Company, priority 2009, published 2011).
Marks after values point to notes of the source that are not given here.

Assays:
Assay type in all cases: in vivo
Conditions in all cases: 100 = 100% disease control
Botrytis cinerea = experiment: Test C: tomato Botrytis on tomato seedlings, sprayed the day before inoculation, visual disease rating
In short: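 Each compound is first taken up in acetone at 3% of the final volume and then brought to the desired ppm in a 50:50 acetone–water mix with 250 ppm surfactant (polyhydric alcohol esters). Tomato seedlings receive the suspension to run-off, normally at 200 ppm, occasionally 40 ppm.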

[1] = tested on: Puccinia recondita f. sp. tritici; experiment: Test I: wheat leaf rust on wheat seedlings, sprayed the day before inoculation, visual disease rating
In short: (§1)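 Test rate was 200 ppm, sprayed to run-off and equal to 500 g/ha, or 40 ppm where marked. The compound was first taken up in acetone at 3% of final volume and suspended in acetone/purified water (50/50) containing 250 ppm Trem® 014.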

Alternaria solani = experiment: Test D: tomato early blight, sprayed the day before inoculation, visual disease rating
In short: as §1

Septoria nodorum = experiment: Test F: wheat glume blotch on wheat seedlings, sprayed the day before inoculation, visual disease rating
In short: as §1

[2] = tested on: Puccinia recondita f. sp. tritici; experiment: Test H: wheat leaf rust, test suspension sprayed after inoculation of wheat seedlings, visual disease rating
In short: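 Wheat seedlings inoculated with P. recondita spores, held 24 h saturated at 20 °C, then 2 days in growth chamber at 20 °C; compound suspension (acetone/water with Trem 014) sprayed to run-off afterwards. Rated visually; 200 ppm (≈500 g/ha) unless marked *, which denotes 40 ppm.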

[3] = tested on: Erysiphe graminis f. sp. tritici; experiment: Test J: wheat powdery mildew on wheat seedlings, sprayed the day before inoculation, visual disease rating
In short: as §1

Septoria tritici = experiment: Test G: wheat leaf blotch on wheat seedlings, sprayed the day before inoculation, visual disease rating
In short: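 Wheat seedlings were sprayed with compound suspensions, 200 ppm unless starred (40 ppm). After next-day spore inoculation, plants spent 48 h saturated at 24° C, then 19 days at 20° C, when disease was rated visually.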

[4] = 200 ppm, 0 = no control relative to controls
[5] = 40 ppm (marked *), 0 = no control

Row | Compound | Test C disease control rating (Botrytis cinerea; [4]) [%] | Test I disease control rating [1, 4] [%] | Test D disease control rating (Alternaria solani; [4]) [%] | Test F disease control rating (Septoria nodorum; [4]) [%] | Test H disease control rating [2, 4] [%] | Test J disease control rating [3, 4] [%] | Test G disease control rating (Septoria tritici; [4]) [%] | Test C disease control rating (Botrytis cinerea; [5]) | Test I disease control rating [1, 5] | Test D disease control rating (Alternaria solani; [5]) | Test F disease control rating (Septoria nodorum; [5]) | Test H disease control rating [2, 5] | Test J disease control rating [3, 5] | Test G disease control rating (Septoria tritici; [5])
1 | N#Cc1ccc(F)c(-c2c(Cl)nc(Cl)n2-c2ccc(Cl)cc2)c1F [compound 407] | 100 | 97 | 0 | 92 | 0 | 98 | 96 |  |  |  |  |  |  | 
2 | CSc1sc(-c2c(Br)nc(Br)n2-c2ccc(Cl)cc2)cc1Br [compound 408] |  |  |  |  |  |  |  | 0* % | 0* % | 0* % | 0* % | 0* % | 0* % | 3* %
3 | Fc1cc(-n2cnc(Br)c2-c2c(F)ccc(F)c2Cl)ccc1Cl [compound 409] | 100 | 96 | 9 | 0 | 0 | 98 | 100 |  |  |  |  |  |  | 
4 | Cc1ccc(-n2cnc(Br)c2-c2c(F)ccc(F)c2Cl)cc1 [compound 410] | 98 | 99 | 99 | 0 | 0 | 100 | 100 |  |  |  |  |  |  | 
5 | Cc1ccc(-n2cnc(Br)c2-c2c(F)ccc(F)c2F)cc1 [compound 411] | 100 | 99 | 100 | 0 | 0 | 100 | 99 |  |  |  |  |  |  | 
6 | Cc1nc(Cl)n(-c2ccc(Cl)cc2)c1-c1c(F)ccc(F)c1F [compound 412] |  |  |  |  |  |  |  | 100* % | 74* % | 100* % | 0* % | 0* % | 99* % | 99* %
7 | Cc1nc(Cl)n(-c2ccc(F)cc2)c1-c1c(F)ccc(F)c1F [compound 413] |  |  |  |  |  |  |  | 100* % | 0* % | 99* % | 0* % | 9* % | 0* % | 14* %
8 | Cc1nc(Cl)n(-c2ccc(Cl)cc2)c1-c1c(F)ccc(F)c1Cl [compound 414] |  |  |  |  |  |  |  | 99* % | 93* % | 99* % | 0* % | 0* % | 100* % | 96* %
9 | Cc1nc(C)n(-c2ccc(Cl)c(F)c2)c1-c1c(F)ccc(F)c1F [compound 415] |  |  |  |  |  |  |  | 100* % | 94* % | 100* % | 0* % | 0* % | 98* % | 99* %
10 | Cc1nc(C)n(-c2ccc(Cl)cc2)c1-c1c(F)ccc(F)c1F [compound 416] |  |  |  |  |  |  |  | 100* % | 26* % | 100* % | 0* % | 0* % | 99* % | 97* %
11 | Cc1nc(C)n(-c2ccc(F)cc2)c1-c1c(F)ccc(F)c1F [compound 417] |  |  |  |  |  |  |  | 100* % | 9* % | 99* % | 0* % | 9* % | 94* % | 89* %
12 | CCc1cccc(-n2c(C)nc(Cl)c2-c2c(F)ccc(OC)c2F)c1 [compound 418] | 100 | 97 | 100 | 99 | 0 | 100 | 100 |  |  |  |  |  |  | 
13 | COc1cc(F)c(-c2c(Cl)ncn2-c2ccccc2)c(F)c1 [compound 420] | 100 | 100 | 100 | 99 | 0 | 100 | 100 |  |  |  |  |  |  | 
14 | Cc1nc(Cl)c(-c2ccc(Cl)c(F)c2)n1-c1ccc(F)cc1Cl [compound 421] | 100 | 100 | 98 | 0 | 0 | 100 | 100 |  |  |  |  |  |  | 
15 | Cc1nc(Cl)c(-c2ccc(Cl)cc2)n1-c1ccc(F)cc1Cl [compound 422] | 100 | 99 | 100 | 60 | 0 | 100 | 100 |  |  |  |  |  |  | 
16 | COc1cc(F)c(-n2c(C)nc(Cl)c2-c2ccc(Cl)cc2)c(F)c1 [compound 423] |  |  |  |  |  |  |  | 100* % | 91* % | 0* % | 69* % | 0* % | 99* % | 94* %
17 | COc1cc(F)c(-c2c(Br)nn(C)c2-c2ccc(Cl)cc2)c(F)c1 [compound 424] | 100 | 94 | 100 | 99 | 0 | 100 | 100 |  |  |  |  |  |  | 
18 | COc1ccc(F)c(-c2c(Cl)nc(C)n2-c2ccc(Cl)c(C)c2)c1F [compound 425] | 100 | 96 | 100 | 100 | 0 | 100 | 100 |  |  |  |  |  |  | 
19 | COc1ccc(F)c(-c2c(Cl)nc(C)n2-c2cccc(OC(F)F)c2)c1F [compound 426] | 100 | 100 | 100 | 100 | 27 | 100 | 100 |  |  |  |  |  |  | 
20 | CCc1cccc(-n2c(Cl)nc(Cl)c2-c2c(F)ccc(OC)c2F)c1 [compound 427] | 100 | 93 | 100 | 99 | 0 | 100 | 100 |  |  |  |  |  |  | 
